Where two headings read alike, the source gives them in different places.
Key:
Caco-2 cells = test: Cholesterol absorption inhibition assay (in vitro), [14C] cholesterol mixed micelles; type: cell-based; conditions: Homo sapiens, 24 hours, read-out: cholesterol absorption inhibitory activity; for inhibition at 12.5 µM: concentration of 12.5 μM; for inhibition at 10 µM: concentration of 10 μM
Method: This assay measures cholesterol absorption inhibitory activity by adding mixed micelles containing [^14C] cholesterol to cells and measuring cholesterol taken in the cells as oleic acid cholesteryl ester. The assay is conducted after Caco-2 cells are seeded on multi-well plates and cultured (culture medium: DMEM containing 10% fetal bovine serum, 1% non-essential amino acids, 1% penicillin, and 1% streptomycin) for 2 weeks. To each well, the micelle solution (in an amount required to provide the following final concentrations: 600 μM of sodium oleate, 50 μM of phosphatidyl choline, 5 mM of sodium taurocholate, 2.5 μM of cholesterol, and 2.5 μM of [^14C] cholesterol) and a test compound solution (in an amount required to provide the final concentration of 0.5 to 25 μM) or a solvent as a control are added, and incubation is started at 37° C. 24 hours later, the culture medium is removed, and the lipid component is extracted with hexane/2-propanol (3:2, v/v) and applied onto thin-layer silica gel plates. After drying, each plate is eluted with a mixture of hexane, diethyl ether, and acetic acid in a ratio of 83:16:1. The plates are photoexposed on imaging plates and analyzed using BAS-2500 (FUJIFILM). The amounts of light exposure of the areas corresponding to the cholesteryl ester are calculated. Background is measured using a blank space of the plate. Inhibition rates are calculated using values obtained by subtracting the background values from both values of the control and the test sample, respectively, in accordance with the following equation. A test value is calculated as a percentage (%) with respect to the control.
In the Equation 1, A is the control group, BG is a background, and B is the test compound.
The following results were obtained from the measurement by this method on cholesterol absorption inhibitory activity of the compounds of the present invention. The following results were obtained by the evaluation using concentrations of 10 μM and/or 12.5 μM.

[1] = system: hamsters fed a high cholesterol diet; test: Measurement of lipid lowering effect in hamsters fed a high cholesterol diet; type: in vivo, Male Golden Syrian hamsters; conditions: Mesocricetus auratus, po, 168 h, gavage once daily, 7 days
Method: Male Golden Syrian hamsters are divided into groups each consisting of 6 animals and fed a controlled high cholesterol diet (CE-2 containing 0.5% cholesterol; CLEA Japan, Inc.) for 28 days at most. From the start of feeding of the high cholesterol diet, the test compounds are administered by gavage once daily. For the administration, 0.2 mL of corn oil alone per 100 g (control group) or a solution (or suspension) of the test compound in corn oil at a dose of 0.01 to 10 mg/kg was given. At the same time, a group fed with a normal diet during the same study period is handled as a normal group. 4 hours after the last administration, whole blood is collected from the abdominal aorta under light anesthesia with ether and serum is separated from the blood. Further, livers are harvested, wet liver weights are measured, and part (about 0.5 g) of the harvested livers are extracted and weighed. 2-propanol in an amount 4 times the weight of the extracted livers are added, the resulted mixtures are homogenized, and the centrifuged supernatant are recovered and used as liver-derived samples.
Serum and liver TC concentrations are determined by an enzyme method using L-type Wako CHO•H (Wako Pure Chemical Industries Ltd.) or Cholestest CHO (Daiichi Pure Chemicals Co., Ltd.). Serum TG concentrations are determined by an enzyme method using L-type Wako TG•H (Wako Pure Chemical Industries Ltd.) or Autosera S TG-N (Daiichi Pure Chemicals Co., Ltd.) and a free glycerine elimination method. LDL-C concentrations are determined by a direct method using L-type Wako LDL-C•M (Wako Pure Chemical Industries Ltd.) or Cholestest LDL (Daiichi Pure Chemicals Co., Ltd.). Human serum was commonly used as a sample for the calibration curve for determinations of serum and liver TC concentrations, serum TG concentration, and serum LDL-C concentration. The effect of the test compound is shown by a suppression rate (%) of an increase in serum TC concentration due to feeding of the high cholesterol diet, a serum TG lowering rate (%), a suppression rate (%) of an increase in serum LDL-C concentration due to feeding of the high cholesterol diet, and a suppression rate (%) of an increase in liver TC concentration due to feeding of the high cholesterol diet calculated in accordance with the following equations.
In the Equation 2, A is the control group, B is the test compound group, and C is the normal group.
In the Equation 3, A is the control group, B is the test compound group, and C is the normal group.
In the Equation 4, A is the control group, B is the test compound group, and C is the normal group.
In the Equation 5, A is the control group, and B is the test compound group.
The following results were obtained from the study by this method on the effects of lowering serum TC, LDL-C, and TG, and liver TC in the hamsters fed with a high cholesterol diet which were given the test compounds for 7 days.
The compounds in which pyridyl of compound of example 51 and 55 was exchanged for phenyl, were used as comparative compound 1 and 2, respectively. In the same method as Example 112, the suppression rate (%) of an increase in serum TC concentration of comparative compound 1 and 2 were calculated.

[2] = read-out: serum LDL-C lowering effect (suppression rate of an increase in serum LDL-C concentration)
[3] = read-out: serum TC lowering effect (suppression rate of an increase in serum TC concentration)
[4] = read-out: serum TG lowering effect (serum TG lowering rate)
[5] = read-out: liver TC lowering effect (suppression rate of an increase in liver TC concentration)

O=C1[C@H](SC[C@H](O)c2ccc(F)cc2)[C@@H](c2ccc(O)cc2)N1c1ccc(-c2cccnc2)cc1 [Example 1, (3R,4R)-3-[(2R)-2-(4-fluorophenyl)-2-hydroxyethylthio]-4-(4-hydroxyphenyl)-1[4-(pyridin-3-yl)phenyl]azetidin-2-one]
inhibition at 12.5 µM (Caco-2 cells): ≥ 60%

O=C1[C@H](SCCc2ccccc2)[C@@H](c2ccc(O)cc2)N1c1ccc(-c2cccnc2)cc1 [Example 4, (3R,4R)-4-(4-hydroxyphenyl)-3-(2-phenylethylthio)-1-[4-(pyridin-3-yl)phenyl]azetidin-2-one]
inhibition at 10 µM (Caco-2 cells): ≥ 50% | inhibition at 12.5 µM (Caco-2 cells): ≥ 60%

O=C1[C@H](SC[C@H](O)c2ccc(F)cc2)[C@@H](c2ccc(O)cc2)N1c1ccc(-c2ccncc2)cc1 [Example 11, (3R,4R)-3-[(2R)-2-(4-fluorophenyl)-2-hydroxyethylthio]-4-(4-hydroxyphenyl)-1-[4-(pyridin-4-yl)phenyl]azetidin-2-one]
inhibition at 10 µM (Caco-2 cells): ≥ 50%

O=C1[C@H](SC[C@H](O)c2ccc(F)cc2)[C@@H](c2ccc(O)cc2)N1c1ccc(-c2cccc3[nH]ccc23)cc1 [Example 13, (3R,4R)-3-[(2R)-2-(4-fluorophenyl)-2-hydroxyethylthio]-4-(4-hydroxyphenyl)-1-[4-(indol-4-yl)phenyl]azetidin-2-one]
inhibition at 10 µM (Caco-2 cells): ≥ 50%

COc1ccc(CS[C@H]2C(=O)N(c3ccc(-c4cccnc4)cc3)[C@@H]2c2ccc(O)cc2)cc1 [Example 19, (3R,4R)-4-(4-hydroxyphenyl)-3-[(4-methoxyphenyl)methylthio]-1-[4-(pyridin-3-yl)phenyl]azetidin-2-one]
inhibition at 10 µM (Caco-2 cells): ≥ 50%

O=C1[C@H](SC[C@H](O)c2ccc(F)cc2)[C@@H](c2ccc(O)cc2)N1c1ccc(-c2cccnc2F)cc1 [Example 21, (3R,4R)-3-[(2R)-2-(4-fluorophenyl)-2-hydroxyethylthio]-1-[4-(2-fluoropyridin-3-yl)phenyl]-4-(4-hydroxyphenyl)azetidin-2-one]
inhibition at 10 µM (Caco-2 cells): ≥ 50%

COc1cnccc1-c1ccc(N2C(=O)[C@H](SC[C@H](O)c3ccc(F)cc3)[C@H]2c2ccc(O)cc2)cc1 [Example 23, (3R,4R)-3-[(2R)-2-(4-fluorophenyl)-2-hydroxyethylthio]-4-(4-hydroxyphenyl)-1-[4-(3-methoxypyridin-4-yl)phenyl]azetidin-2-one]
inhibition at 10 µM (Caco-2 cells): ≥ 50%

O=C1[C@H](SC[C@H](O)c2ccc3c(c2)OCCO3)[C@@H](c2ccc(O)cc2)N1c1ccc(-c2cccnc2)cc1 [Example 29, (3R,4R)-3-[(2R)-2-(2H,3H-benzo[3,4-e]1,4-dioxin-6-yl)-2-hydroxyethylthio]-4-(4-hydroxyphenyl)-1-[4-(pyridin-3-yl)phenyl]azetidin-2-one]
inhibition at 10 µM (Caco-2 cells): ≥ 50%

O=C1[C@H](SC[C@H](O)c2ccc(F)cc2)[C@@H](c2ccc(O)cc2)N1c1ccc(-c2cccnc2)c(F)c1 [Example 36, (3R,4R)-3-[(2R)-2-(4-fluorophenyl)-2-hydroxyethylthio]-1-[3-fluoro-4-(pyridin-3-yl)phenyl]-4-(4-hydroxyphenyl)azetidin-2-one]
inhibition at 10 µM (Caco-2 cells): ≥ 50%

O=C1[C@H](SC[C@H](O)c2ccc(F)cc2)[C@@H](c2ccc(O)c(O)c2)N1c1ccc(-c2cccnc2)cc1 [Example 37, (3R,4R)-3-[(2R)-2-(4-fluorophenyl)-2-hydroxyethylthio]-4-(3,4-dihydroxyphenyl)-1-[4-(pyridin-3-yl)phenyl]azetidin-2-one]
inhibition at 10 µM (Caco-2 cells): ≥ 50%

O=C1[C@H](SC[C@H](O)c2ccc(F)cc2)[C@@H](c2ccc(O)c(Cl)c2)N1c1ccc(-c2cccnc2)cc1 [Example 39, (3R,4R)-3-[(2R)-2-(4-fluorophenyl)-2-hydroxyethylthio]-4-(3-chloro-4-hydroxyphenyl)-1-[4-(pyridin-3-yl)phenyl]azetidin-2-one]
inhibition at 10 µM (Caco-2 cells): ≥ 50%

Cc1cc(O)ccc1[C@@H]1[C@@H](SC[C@H](O)c2ccc(F)cc2)C(=O)N1c1ccc(-c2cncnc2)cc1 [Example 100, (3R,4R)-3-[(2R)-2-(4-fluorophenyl)-2-hydroxyethylthio]-4-(4-hydroxy-2-methylphenyl)-1-[4-(pyrimidin-5-yl)phenyl]azetidin-2-one]
inhibition in vivo at 0.1 mg/kg [1, 2]: ≥ 50% | inhibition in vivo at 0.1 mg/kg [1, 3]: ≥ 50% | inhibition in vivo at 0.1 mg/kg [1, 4]: ≥ 20%

COc1cc(Cl)ccc1[C@@H](O)CS[C@H]1C(=O)N(c2ccc(-c3cccnc3)cc2)[C@@H]1c1ccc(O)cc1 [Example 101, (3R,4R)-3-[(2R)-2-(4-chloro-2-methoxyphenyl)-2-hydroxyethylthio]-4-(4-hydroxyphenyl)-1-[4-(pyridin-3-yl)phenyl]azetidin-2-one]
inhibition in vivo at 0.1 mg/kg [1, 2]: ≥ 50% | inhibition in vivo at 0.1 mg/kg [1, 3]: ≥ 50%

Cc1cc(Cl)ccc1[C@@H](O)CS[C@H]1C(=O)N(c2ccc(-c3cccnc3)cc2)[C@@H]1c1ccc(O)cc1 [Example 102, (3R,4R)-3-[(2R)-2-(4-chloro-2-methylphenyl)-2-hydroxyethylthio]-4-(4-hydroxyphenyl)-1-[4-(pyridin-3-yl)phenyl]azetidin-2-one]
inhibition in vivo at 0.1 mg/kg [1, 5]: ≥ 50% | inhibition in vivo at 0.1 mg/kg [1, 2]: ≥ 50% | inhibition in vivo at 0.1 mg/kg [1, 3]: ≥ 50%

N#Cc1ncc(-c2ccc(N3C(=O)[C@H](SC[C@H](O)c4ccc(F)cc4)[C@H]3c3ccc(O)cc3)cc2)cn1 [Example 103, 5-(4-{(3R,4R)-3-[(2R)-2-(4-fluorophenyl)-2-hydroxyethylthio]-4-(4-hydroxyphenyl)-2-oxoazetidinyl}phenyl)pyrimidine-2-carbonitrile]
inhibition in vivo at 0.1 mg/kg [1, 4]: ≥ 20%

O=C1[C@H](SC[C@H](O)c2ccc(Cl)cc2)[C@@H](c2ccc(O)cc2)N1c1ccc(-c2cnccn2)cc1 [Example 104, (3R,4R)-3-[(2R)-2-(4-chlorophenyl)-2-hydroxyethylthio]-4-(4-hydroxyphenyl)-1-[4-(pyrazin-2-yl)phenyl]azetidin-2-one]
inhibition in vivo at 0.01 mg/kg [1, 2]: ≥ 30% | inhibition in vivo at 0.01 mg/kg [1, 3]: ≥ 30% | inhibition in vivo at 0.1 mg/kg [1, 5]: ≥ 50%

CCNC(=O)c1cncc(-c2ccc(N3C(=O)[C@H](SC[C@H](O)c4ccc(Cl)cc4)[C@H]3c3ccc(O)cc3)cc2)c1 [Example 106, N-ethyl-5-(4-{(3R,4R)-3-[(2R)-2-(4-chlorophenyl)-2-hydroxyethylthio]-4-(4-hydroxyphenyl)-2-oxoazetidinyl}phenyl)pyridine-3-carboxamide]
inhibition in vivo at 0.1 mg/kg [1, 2]: ≥ 50%

From patent publication US20100125059A1, “1-BIARYLAZETIDINONE DERIVATIVE” (Teijin Pharma Limited, priority 2007, published 2010)
